According to PMC10210398, “Genomic, functional and structural analyses elucidate evolutionary innovation within the sea anemone 8 toxin family” (BMC Biology, 2023):

Key:
hKV1.2 = molecular target: T1, hKV1.2 (Homo sapiens, UniProt P16389); experiment: Whole-cell patch-clamp, hKV1.2 in transiently transfected CHO cells; format: cell-based; set-up: reduction in current amplitude, positive control: dose or concentration left out as unconfirmed; settings: […] nM, KV1.2
T1 construct: GFP; expressed in transfected cells; host or cells: CHO cells (ATCC), transient transfection with Lipofectamine 2000
Procedure: (§1) CHO and human embryonic kidney (HEK 293) cells were grown in DMEM-high glucose supplemented with 10% FBS, 2 mM L-glutamine, 100 U/mL penicillin-g, and 100 μg/mL streptomycin (Invitrogen) at 37 °C in a 5% CO2 and 95% air humidified atmosphere. Cells were passaged twice per week following a 5-min incubation in PBS containing 0.2 g/L EDTA (Invitrogen, Carlsbad, CA).
(§2) CHO cells (ATCC) were transiently transfected with plasmids encoding hKV1.1, hKV1.2, hKV10.1, hKCa3.1, hTRPA1, or hNaV1.7 using Lipofectamine 2000 (Invitrogen, Carlsbad, CA) following the manufacturer’s protocol, then cultured under standard conditions. The cells were co-transfected with a plasmid encoding green fluorescent protein (GFP) at a molar ratio of 10:1 except for hKV1.1, hKV1.2, and hKCa3.1 for which GFP-tagged ion channel vectors were used. Currents were recorded 24–36 h after transfection. […] HEK 293 cells stably expressing the hKv11.1 channel (hERG, hKCNH2 gene, a kind gift from H. Wulff, University of California, Davis, CA) and mKCa1.1 channel (BKCa, hKCNMA1, a kind gift from C. Beeton, Baylor College of Medicine, Houston, TX) were used. hTRPV1 channels were expressed in a stable manner in CHO cells. Transfected cells were washed twice with 2 mL of ECS (see below) and re-plated onto 35-mm polystyrene cell culture dishes (Cellstar, Greiner Bio-One). hKV1.3 currents were recorded from activated peripheral blood mononuclear cells (PBMCs, see below) 3–4 days after activation. Human veinous blood was obtained from anonymised healthy donors. PBMCs were isolated using Histopaque1077 (Sigma-Aldrich Hungary, Budapest, Hungary) density gradient centrifugation. Cells obtained were resuspended in RPMI 1640 medium containing 10% foetal calf serum (Sigma-Aldrich Hungary, Budapest, Hungary), 100 μg/mL penicillin, 100 μg/mL streptomycin, and 2 mM L-glutamine, seeded in a 24-well culture plate at a density of 5–6 × 10^5 cells/mL, and grown in a 5% CO2 incubator at 37 °C for 3–5 days. Phytohemagglutinin A (PHA, Sigma-Aldrich Hungary, Budapest, Hungary) was added to the medium at 10 μg/mL to amplify the KV1.3 expression. Cells were washed gently twice with 2 mL of ECS for the patch-clamp experiments.
Conventional whole-cell patch-clamp electrophysiology was used to record ionic currents. Micropipettes were pulled in four stages using a Flaming Brown automatic pipette puller (Sutter Instruments, San Rafael, CA) from Borosilicate Standard Wall with Filament aluminium–silicate glass (Harvard Apparatus Co., Holliston, MA) with tip diameters between 0.5 and 1 μm and heat polished to a tip resistance of 2–8 MΩ. All measurements were carried out by using Axopatch 200B amplifier connected to a personal computer using Axon Digidata 1550A data acquisition hardware (Molecular Devices, Sunnyvale, CA). In general, the holding potential was − 120 mV. Records were discarded when a leak at the holding potential was > 10% of the peak current at the test potential. Series resistance compensation up to 70% was used to minimise voltage errors and achieve proper voltage-clamp conditions. Experiments were performed at room temperature (20–24 °C). Data were analysed using Prism 8 (GraphPad, CA, USA) and ClampFit 10.5 software (Molecular Devices Inc., Sunnyvale, CA). Before analysis, whole-cell current traces were corrected for ohmic leakage and digitally filtered with a three-point boxcar smoothing filter. For hKCa3.1, hTRPA1 and hTRPV1, the reversal potential for K^+ was determined and only those currents were analysed for which the reversal potential fell into the range of the theoretical reversal potential ± 5 mV (− 86.5 ± 5 mV for KCa3.1, and 0 ± 5 mV for hTRPA1 and hTRPV1).

hKV10.1 = experiment: Whole-cell patch-clamp, hKV10.1 in transiently transfected CHO cells; format: cell-based, human; settings: 2 µM, KV10.1
Procedure: as §1
as §2, with “PBMCs were isolated using Histopaque1077 (Sigma-Aldrich Hungary, Budapest, Hungary) density gradient centrifugation. Cells obtained were resuspended in RPMI 1640 medium containing 10% foetal calf serum (Sigma-Aldrich Hungary, Budapest, Hungary), 100 μg/mL penicillin, 100 μg/mL streptomycin, and 2 mM L-glutamine, seeded in a 24-well culture plate at a density of 5–6 × 10^5 cells/mL, and grown in a 5% CO2 incubator at 37 °C for 3–5 days. Phytohemagglutinin A (PHA, Sigma-Aldrich Hungary, Budapest, Hungary) was added to the medium at 10 μg/mL to amplify the KV1.3 expression. Cells were washed gently twice with 2 mL of ECS for the patch-clamp experiments.” left out
(§3) Conventional whole-cell patch-clamp electrophysiology was used to record ionic currents. […] Data were analysed using Prism 8 (GraphPad, CA, USA) and ClampFit 10.5 software (Molecular Devices Inc., Sunnyvale, CA). […] For hKCa3.1, hTRPA1 and hTRPV1, the reversal potential for K^+ was determined and only those currents were analysed for which the reversal potential fell into the range of the theoretical reversal potential ± 5 mV (− 86.5 ± 5 mV for KCa3.1, and 0 ± 5 mV for hTRPA1 and hTRPV1).

hKV1.3 [1] = format: cell-based, human
Procedure: as §2, with “Phytohemagglutinin A (PHA, Sigma-Aldrich Hungary, Budapest, Hungary) was added to the medium at 10 μg/mL to amplify the KV1.3 expression. Cells were washed gently twice with 2 mL of ECS for the patch-clamp experiments.” left out
as §3

mKCa1.1 channel [2] = format: cell-based
Procedure: as §1
as §2, with “PBMCs were isolated using Histopaque1077 (Sigma-Aldrich Hungary, Budapest, Hungary) density gradient centrifugation. Cells obtained were resuspended in RPMI 1640 medium containing 10% foetal calf serum (Sigma-Aldrich Hungary, Budapest, Hungary), 100 μg/mL penicillin, 100 μg/mL streptomycin, and 2 mM L-glutamine, seeded in a 24-well culture plate at a density of 5–6 × 10^5 cells/mL, and grown in a 5% CO2 incubator at 37 °C for 3–5 days. Phytohemagglutinin A (PHA, Sigma-Aldrich Hungary, Budapest, Hungary) was added to the medium at 10 μg/mL to amplify the KV1.3 expression. Cells were washed gently twice with 2 mL of ECS for the patch-clamp experiments.” left out
as §3

hKV1.1 [3] = settings: read-out: Kd (positive control concentration equivalent to Kd); KV1.1; no reference given; cited from earlier work
Procedure: (§4) Voltage protocols: For measurement of hKV1.1–1.3 and hKV10.1, currents, voltage steps to + 50 mV, were applied from a holding potential of − 120 mV every 15 or 30 s and the peak current was measured. Channels were activated by a series of depolarisation pulses to + 50 mV from a holding potential of − 120 mV. For KV1.1, 50-ms-long activating stimuli were used every 15 s. Due to the highly variable activation kinetics of KV1.2 [145] 200-ms-long pulses were applied every 15 s to maximise the open probability of the channel.

hKV1.3 [4] = settings: read-out: Kd (positive control concentration equivalent to Kd); KV1.3; no reference given; cited from earlier work
Procedure: as §4

mKCa1.1 channel [5] = settings: read-out: Kd (positive control concentration equivalent to Kd); KCa1.1; no reference given; cited from earlier work
Procedure: as §4

hKV1.1 [6] = format: cell-based, human
Procedure: as §1
as §2, with “PBMCs were isolated using Histopaque1077 (Sigma-Aldrich Hungary, Budapest, Hungary) density gradient centrifugation. Cells obtained were resuspended in RPMI 1640 medium containing 10% foetal calf serum (Sigma-Aldrich Hungary, Budapest, Hungary), 100 μg/mL penicillin, 100 μg/mL streptomycin, and 2 mM L-glutamine, seeded in a 24-well culture plate at a density of 5–6 × 10^5 cells/mL, and grown in a 5% CO2 incubator at 37 °C for 3–5 days. Phytohemagglutinin A (PHA, Sigma-Aldrich Hungary, Budapest, Hungary) was added to the medium at 10 μg/mL to amplify the KV1.3 expression. Cells were washed gently twice with 2 mL of ECS for the patch-clamp experiments.” left out
as §3

T1 sequence (P16389 whole entry): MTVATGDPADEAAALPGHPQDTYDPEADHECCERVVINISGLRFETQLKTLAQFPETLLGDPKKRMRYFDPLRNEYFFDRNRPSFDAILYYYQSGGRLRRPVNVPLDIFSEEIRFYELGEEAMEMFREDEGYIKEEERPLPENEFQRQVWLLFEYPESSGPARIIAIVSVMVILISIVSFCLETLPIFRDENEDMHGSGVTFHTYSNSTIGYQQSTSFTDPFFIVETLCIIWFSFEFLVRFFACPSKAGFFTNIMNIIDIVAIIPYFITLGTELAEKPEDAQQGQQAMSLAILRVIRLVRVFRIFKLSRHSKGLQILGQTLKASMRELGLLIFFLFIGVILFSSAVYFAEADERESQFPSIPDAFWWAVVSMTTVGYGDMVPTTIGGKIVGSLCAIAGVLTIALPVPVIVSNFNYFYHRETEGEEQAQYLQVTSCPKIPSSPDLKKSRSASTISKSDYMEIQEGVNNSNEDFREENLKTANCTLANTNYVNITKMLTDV

For “charybdotoxin [ChTx, reference compound]”, the “reduction in current amplitude, positive control” value (“reduction in current amplitude” for short) (hKV1.2) was about 50%.

With COc1ccc(CCN2CCC(Nc3nc4ccccc4n3Cc3ccc(F)cc3)CC2)cc1 [Astemizole, astemizole, reference compound] the “reduction in current amplitude” value (hKV10.1) was about 50%.

For CC[N+](CC)(CC)CC [TEA+, tetraethylammonium, reference compound], the “reduction in current amplitude” value (hKV1.3 [1]) is listed as about 50%, the “reduction in current amplitude” value (mKCa1.1 channel [2]) is listed as about 50% and the Kd (hKV1.1 [3]) is listed as 0.3 mM. For the same compound, the Kd (hKV1.3 [4]) was 10 mM, the Kd (mKCa1.1 channel [5]) was 10 mM and the “reduction in current amplitude” value (hKV1.1 [6]) was about 50%.
